Results: paper PMC4506958 (FEBS Open Bio, 2015)

Assays:
[1] = target: T1, Keap1 (Kelch-like ECH-associated protein 1) (Homo sapiens, UniProt Q14145); assay: X-ray crystal structures at […] Å (soaking form 3vnh, cocrystallization form 3vng); SPR; AlphaScreen competition with Nrf2 peptide; type: binding
T1 construct: Kelch domain (residues 321–609)

[2] = target: Nrf2 ETGE motif (Homo sapiens) (UniProt Q16236); assay: ITC; conditions: cited from earlier work

T1 sequence (Q14145 321-609): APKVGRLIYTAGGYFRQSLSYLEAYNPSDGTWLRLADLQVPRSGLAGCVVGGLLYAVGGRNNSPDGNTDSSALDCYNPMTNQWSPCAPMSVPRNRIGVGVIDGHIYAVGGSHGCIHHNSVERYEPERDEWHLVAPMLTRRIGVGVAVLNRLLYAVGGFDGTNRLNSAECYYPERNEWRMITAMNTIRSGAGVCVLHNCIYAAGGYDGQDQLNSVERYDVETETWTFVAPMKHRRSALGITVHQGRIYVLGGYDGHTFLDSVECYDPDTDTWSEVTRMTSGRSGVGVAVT
Sequence of Keap1 Kelch domain (Q14145 321-609): as above

O=C(O)COc1cccc(CNC(=O)Nc2nnc(-c3ccco3)o2)c1 [Ligand1, 2-(3-((3-(5-(furan-2-yl)-1,3,4-oxadiazol-2-yl)ureido)methyl)phenoxy)acetic acid]
Kd [1]: > 50000 nM

Keap1 Kelch domain (from UniProt Q14145)
Kd [2]: 8 nM
